Laboratory results published in ChEMBL document CHEMBL1156251, “Structure--activity relationships of polymyxin antibiotics” (J Med Chem, 2010).
≈ marks a conversion by molar mass, not a printed value. Where a SMILES comes first, the peptide text is derived from it. Bridges are numbered along the chain shown (N, C = ends). [ ]: non-standard residue; d: D form. The star is where a group is joined. Octanoyl = CCCCCCCC(=O)*; Dab = NCC[C@H](N)C(=O)O; Abu = CC[C@H](N)C(=O)O

How the values were obtained:
Klebsiella pneumoniae = experiment: Antimicrobial activity against Klebsiella pneumoniae; type: functional
Escherichia coli [1] = experiment: Antimicrobial activity against Escherichia coli; type: functional
Pseudomonas aeruginosa = experiment: Antimicrobial activity against Pseudomonas aeruginosa; type: functional, organism-based
Escherichia coli [2] = experiment: Antimicrobial activity against Escherichia coli at 10 ug/mL; type: functional

MIC (Klebsiella pneumoniae) [µg/mL]	MIC (Escherichia coli [1]) [µg/mL]	MIC (Pseudomonas aeruginosa) [µg/mL]	Compound	GI (Escherichia coli [2]) [square millimeter]
≥ 500	≥ 500	≥ 500	CC(C)C[C@@H]1NC(=O)[C@@H](Cc2ccccc2)NC(=O)[C@H](CCN)NC(=O)[C@@H](NC(=O)[C@H](CCN)NC(=O)[C@H](NC(=O)[C@H](C)NC(=O)[C@@H](C)NC(=O)[C@H](C)N)[C@@H](C)O)CCNC(=O)[C@@H]([C@@H](C)O)NC(=O)[C@H](CCN)NC(=O)[C@H](CCN)NC1=O	
62 (≈ 52.3 µM)	0.8 (≈ 0.675 µM)	8 (≈ 6.75 µM)	CC(C)C[C@@H]1NC(=O)[C@@H](Cc2ccccc2)NC(=O)[C@H](CCN)NC(=O)[C@@H](NC(=O)[C@H](CCN)NC(=O)[C@H](NC(=O)OCC2c3ccccc3-c3ccccc32)[C@@H](C)O)CCNC(=O)[C@@H]([C@@H](C)O)NC(=O)[C@H](CCN)NC(=O)[C@H](CCN)NC1=O	
≥ 500	≥ 500	≥ 500	CC(C)C[C@@H]1NC(=O)[C@@H](Cc2ccccc2)NC(=O)[C@H](CCN)NC(=O)[C@@H](NC(=O)[C@H](CCN)NC(=O)[C@H](NC(=O)[C@H](C)NC(=O)[C@@H](C)NC(=O)[C@H](C)NC(=O)[C@H](C)NC(=O)[C@@H](C)NC(=O)[C@H](C)N)[C@@H](C)O)CCNC(=O)[C@@H]([C@@H](C)O)NC(=O)[C@H](CCN)NC(=O)[C@H](CCN)NC1=O	
16 (≈ 12.4 µM)	8 (≈ 6.22 µM)	4 (≈ 3.11 µM)	CC(C)C[C@@H]1NC(=O)[C@@H](Cc2ccccc2)NC(=O)[C@H](CCN)NC(=O)[C@@H](NC(=O)[C@H](CCN)NC(=O)[C@H](NC(=O)[C@H](CCN)NC(=O)OCC2c3ccccc3-c3ccccc32)[C@@H](C)O)CCNC(=O)[C@@H]([C@@H](C)O)NC(=O)[C@H](CCN)NC(=O)[C@H](CCN)NC1=O	
			CCCCCCCCCC(=O)N[C@H](C(=O)N[C@H](CO)C(=O)N[C@H]1CCNC(=O)[C@H]([C@@H](C)O)NC(=O)[C@H](CCN)NC(=O)[C@H](CCN)NC(=O)[C@H](CC(C)C)NC(=O)[C@@H](Cc2ccccc2)NC(=O)[C@H](CCN)NC1=O)[C@@H](C)O	130
			CCCCCCCC(=O)N[C@H](C(=O)N[C@H](CO)C(=O)N[C@H]1CCNC(=O)[C@H]([C@@H](C)O)NC(=O)[C@H](CCN)NC(=O)[C@H](CCN)NC(=O)[C@H]([C@H](C)O)NC(=O)[C@@H](Cc2ccccc2)NC(=O)[C@H](CCN)NC1=O)[C@@H](C)O	172
			CCCCCCC(=O)N[C@H](C(=O)N[C@H](CO)C(=O)N[C@H]1CCNC(=O)[C@H]([C@@H](C)O)NC(=O)[C@H](CCN)NC(=O)[C@H](CCN)NC(=O)[C@H](CC(C)C)NC(=O)[C@@H](Cc2ccccc2)NC(=O)[C@H](CCN)NC1=O)[C@@H](C)O	80
			CCCCCCC(=O)N[C@H](C(=O)N[C@H](CO)C(=O)N[C@H]1CCNC(=O)[C@H]([C@@H](C)O)NC(=O)[C@H](CCN)NC(=O)[C@H](CCN)NC(=O)[C@H]([C@H](C)O)NC(=O)[C@@H](Cc2ccccc2)NC(=O)[C@H](CCN)NC1=O)[C@@H](C)O	200
			CCCCCCCC(=O)N[C@H](C(=O)N[C@H](C)C(=O)N[C@H]1CCNC(=O)[C@H]([C@@H](C)O)NC(=O)[C@H](CCN)NC(=O)[C@H](CCN)NC(=O)[C@H]([C@H](C)O)NC(=O)[C@@H](Cc2ccccc2)NC(=O)[C@H](CCN)NC1=O)[C@@H](C)O	60
			CCCCCCCC(=O)N[C@H](C(=O)N[C@@H](CC)C(=O)N[C@H]1CCNC(=O)[C@H]([C@@H](C)O)NC(=O)[C@H](CCN)NC(=O)[C@H](CCN)NC(=O)[C@H](CC(C)C)NC(=O)[C@@H](Cc2ccccc2)NC(=O)[C@H](CCN)NC1=O)[C@@H](C)O	32
			CCCCCCCC(=O)N[C@H](C(=O)N[C@@H](CCN)C(=O)N[C@H]1CCNC(=O)[C@H]([C@@H](C)O)NC(=O)[C@H](CCN)NC(=O)[C@H](CC)NC(=O)[C@H](CC(C)C)NC(=O)[C@@H](Cc2ccccc2)NC(=O)[C@H](CCN)NC1=O)[C@@H](C)O	60
			CCCCCCCC(=O)N[C@H](C(=O)N[C@@H](CCN)C(=O)N[C@H]1CCNC(=O)[C@H]([C@@H](C)O)NC(=O)[C@H](CCN)NC(=O)[C@H](CCN)NC(=O)[C@H](CC(C)C)NC(=O)[C@H](Cc2ccccc2)NC(=O)[C@H](CCN)NC1=O)[C@@H](C)O	0
			CCCCCCCC(=O)N[C@H](C(=O)N[C@@H](CCC(N)=O)C(=O)N[C@H]1CCNC(=O)[C@H]([C@@H](C)O)NC(=O)[C@H](CCN)NC(=O)[C@H](CCN)NC(=O)[C@H](CC(C)C)NC(=O)[C@@H](Cc2ccccc2)NC(=O)[C@H](CCN)NC1=O)[C@@H](C)O	10
1.3 (≈ 0.831 µM)	5 (≈ 3.2 µM)		CCC(C)CCCCC(=O)N[C@@H](CCNCc1ccccc1)C(=O)N[C@H](C(=O)N[C@@H](CCN)C(=O)N[C@H]1CCNC(=O)[C@H]([C@@H](C)O)NC(=O)[C@H](CCNCc2ccccc2)NC(=O)[C@H](CCNCc2ccccc2)NC(=O)[C@H](CC(C)C)NC(=O)[C@@H](Cc2ccccc2)NC(=O)[C@H](CCNCc2ccccc2)NC1=O)[C@@H](C)O (stereo partly drawn)	
0.7 (≈ 0.532 µM)	3.1 (≈ 2.36 µM)	2.18 (≈ 1.66 µM)	CCCCCCCC(=O)N[C@@H](CCN)C(=O)N[C@@H](C(=O)N[C@@H](CCN)C(=O)N[C@H]1CCNC(=O)[C@H]([C@@H](C)O)NC(=O)[C@H](CCNCCCCCC(C)CC)NC(=O)[C@H](CCN)NC(=O)[C@H](CC(C)C)NC(=O)[C@@H](Cc2ccccc2)NC(=O)[C@H](CCN)NC1=O)[C@@H](C)O (stereo partly drawn)	
2.2 (≈ 1.63 µM)	0.175 (≈ 0.129 µM)	0.073 (≈ 0.054 µM)	CCCCCCCC(=O)N[C@@H](CCN)C(=O)N[C@H](C(=O)N[C@@H](CCN)C(=O)N[C@H]1CCNC(=O)[C@H]([C@@H](C)O)NC(=O)[C@H](CCNC(=O)[C@@H](N)Cc2ccc(O)cc2)NC(=O)[C@H](CCN)NC(=O)[C@H](CC(C)C)NC(=O)[C@@H](Cc2ccccc2)NC(=O)[C@H](CCN)NC1=O)[C@@H](C)O	
5.65 (≈ 4.28 µM)	0.77 (≈ 0.583 µM)	0.416 (≈ 0.315 µM)	CCCCCCCC(=O)N[C@@H](CCN)C(=O)N[C@H](C(=O)N[C@@H](CCN)C(=O)N[C@H]1CCNC(=O)[C@H]([C@@H](C)O)NC(=O)[C@H](CCNC(=O)[C@H](N)CCSC)NC(=O)[C@H](CCN)NC(=O)[C@H](CC(C)C)NC(=O)[C@@H](Cc2ccccc2)NC(=O)[C@H](CCN)NC1=O)[C@@H](C)O	
11.3 (≈ 8.75 µM)	1.68 (≈ 1.3 µM)	2.82 (≈ 2.18 µM)	CCCCCCCC(=O)N[C@@H](CCN)C(=O)N[C@H](C(=O)N[C@@H](CCN)C(=O)N[C@H]1CCNC(=O)[C@H]([C@@H](C)O)NC(=O)[C@H](CCNC(=O)[C@@H](N)CS)NC(=O)[C@H](CCN)NC(=O)[C@H](CC(C)C)NC(=O)[C@@H](Cc2ccccc2)NC(=O)[C@H](CCN)NC1=O)[C@@H](C)O	
			CCCCCCCC(=O)N[C@H](C(=O)N[C@@H](CO)C(=O)N[C@H]1CCNC(=O)[C@H]([C@@H](C)O)NC(=O)[C@H](CCN)NC(=O)[C@H](CCN)NC(=O)[C@H](CC(C)C)NC(=O)[C@@H](Cc2ccccc2)NC(=O)[C@H](CCN)NC1=O)[C@@H](C)O (Octanoyl-TS[Dab][Dab][dF]L[Dab][Dab]T; lactam 3-C)	171
			CCCCCCCC(=O)N[C@H](C(=O)N[C@@H](CC)C(=O)N[C@H]1CCNC(=O)[C@H]([C@@H](C)O)NC(=O)[C@H](CCN)NC(=O)[C@H](CCN)NC(=O)[C@H](CC(C)C)NC(=O)[C@H](CC(C)C)NC(=O)[C@H](CCN)NC1=O)[C@@H](C)O (Octanoyl-T[Abu][Dab][Dab]LL[Dab][Dab]T; lactam 3-C)	0
			CCCCCCCC(=O)N[C@H](C(=O)N[C@@H](CC)C(=O)N[C@H]1CCNC(=O)[C@H](CC(C)C)NC(=O)[C@H](CCN)NC(=O)[C@H](CCN)NC(=O)[C@H](CC(C)C)NC(=O)[C@@H](Cc2ccccc2)NC(=O)[C@H](CCN)NC1=O)[C@@H](C)O (Octanoyl-T[Abu][Dab][Dab][dF]L[Dab][Dab]L; lactam 3-C)	50
16 (≈ 13 µM)	0.537 (≈ 0.436 µM)	0.456 (≈ 0.37 µM)	CCCCCCCC(=O)N[C@@H](CCN)C(=O)N[C@H](C(=O)N[C@@H](CCN)C(=O)N[C@H]1CCNC(=O)[C@H]([C@@H](C)O)NC(=O)[C@H](CCNC(C)C)NC(=O)[C@H](CCN)NC(=O)[C@H](CC(C)C)NC(=O)[C@@H](Cc2ccccc2)NC(=O)[C@H](CCN)NC1=O)[C@@H](C)O [DIMETHYL DAB9 POLYMYXIN B]	
22.6 (≈ 18.1 µM)	1.54 (≈ 1.23 µM)	1.53 (≈ 1.23 µM)	CCCCCCCC(=O)N[C@@H](CCN)C(=O)N[C@H](C(=O)N[C@@H](CCN)C(=O)N[C@H]1CCNC(=O)[C@H]([C@@H](C)O)NC(=O)[C@H](CCNC(=O)CO)NC(=O)[C@H](CCN)NC(=O)[C@H](CC(C)C)NC(=O)[C@@H](Cc2ccccc2)NC(=O)[C@H](CCN)NC1=O)[C@@H](C)O [HYDROXYACETYL DAB9 POLYMYXIN B]	
2.8 (≈ 2.15 µM)	0.173 (≈ 0.133 µM)	0.032 (≈ 0.0245 µM)	CCCCCCCC(=O)N[C@@H](CCN)C(=O)N[C@H](C(=O)N[C@@H](CCN)C(=O)N[C@H]1CCNC(=O)[C@H]([C@@H](C)O)NC(=O)[C@H](CCNC(=O)C(N)CCCN)NC(=O)[C@H](CCN)NC(=O)[C@H](CC(C)C)NC(=O)[C@@H](Cc2ccccc2)NC(=O)[C@H](CCN)NC1=O)[C@@H](C)O (stereo partly drawn) [L-LYSYL DAB9 POLYMYXIN B]	

Compound	MIC (Klebsiella pneumoniae) [µg/mL]	MIC (Escherichia coli [1]) [µg/mL]	MIC (Pseudomonas aeruginosa) [µg/mL]	GI (Escherichia coli [2]) [square millimeter]
CCCCCCCC(=O)N[C@@H](CCN)C(=O)N[C@H](C(=O)N[C@@H](CCN)C(=O)N[C@H]1CCNC(=O)[C@H]([C@@H](C)O)NC(=O)[C@H](CCNC(=O)CCl)NC(=O)[C@H](CCN)NC(=O)[C@H](CC(C)C)NC(=O)[C@@H](Cc2ccccc2)NC(=O)[C@H](CCN)NC1=O)[C@@H](C)O [CHLOROACETYL DAB9 POLYMYXIN B]	9.5 (≈ 7.5 µM)	0.454 (≈ 0.359 µM)	0.085 (≈ 0.0671 µM)	
CCCCCCCC(=O)N[C@@H](CCN)C(=O)N[C@H](C(=O)N[C@@H](CCN)C(=O)N[C@H]1CCNC(=O)[C@H]([C@@H](C)O)NC(=O)[C@H](CCNC(=O)C(Cl)Cl)NC(=O)[C@H](CCN)NC(=O)[C@H](CC(C)C)NC(=O)[C@@H](Cc2ccccc2)NC(=O)[C@H](CCN)NC1=O)[C@@H](C)O [DICHLOROACETYL DAB9 POLYMYXIN B]	0.82 (≈ 0.631 µM)	1.54 (≈ 1.18 µM)	0.995 (≈ 0.765 µM)	
